Reference: PMC4335872, “Pharmacokinetic-Pharmacodynamic Analysis of Spiroindolone Analogs and KAE609 in a Murine Malaria Model” (Antimicrobial Agents and Chemotherapy, 2015)
Converted amounts (≈) assume the structure as drawn. “Also recorded” adds a separate entry of the source.

Tests used:
[1] = In vivo PK after single p.o. and i.v. dosing in CD-1 mice; design: species or system female CD-1 mice; details: CD-1 mice; for CL / Vss / t1/2 (i.v.): i.v. 5 mg/kg; for F (oral bioavailability): oral 25 mg/kg vs i.v. 5 mg/kg; for AUC0–24 / Tmax / t1/2 (oral) / Cmax: single oral dose 25 mg/kg; for Cmax: plasma
Method: The Institutional Animal Care and Use Committee (IACUC) of the Novartis Institute for Tropical Diseases (NITD), registered with the Agri-Food and Veterinary authority (AVA), Government of Singapore, reviewed and approved all animal experimental protocols. […] The mice were allowed to acclimate before the initiation of the experiments. Feed and water were given ad libitum. […] The blood samples from the mice were collected at 0.02 (for i.v. only), 0.08, 0.25, 0.5, 1, 2, 4, 8, 16, and 24 h postdosing. The dose proportionality studies were conducted with KAE609. […] Additional samples were collected at 32 h and 48 h postdose for the 1- and 5-mg/kg dose groups and up to 72 h postdose for the 100-mg/kg dose group. Groups of three mice were used for each time point. Blood was centrifuged at 13,000 rpm for 7 min at 4°C, and plasma was harvested and stored at -20°C until analysis. […] After vortexing and centrifuging the mixture, the supernatant was removed and 5 μl of sample analyzed. Analyte quantitation was performed by high-performance liquid chromatography coupled with tandem mass spectrometry (LC-MS/MS). […] Instrument control and data acquisition were performed using the Applied Biosystems software Analyst 1.4.2. […] Multiple-reaction monitoring (MRM) was combined with optimized MS parameters to maximize detection specificity and sensitivity. The most intense MRM transitions [338.3/295.1 for (+)-1, 370.1/327.0 for (+)-2, 370.0/326.9 for (+)-3, 354.1/310.8 for (+)-4, 354.1/311.2 for (+)-5, 372.1/329.1 for (+)-6, 388.0/331.8 for (+)-7, 372.1/316.1 for (-)-6, and 388/332 for (-)-7] were used for quantitation. Most compounds were analyzed using electrospray ionization in the negative mode, except (+)-1, which was analyzed using positive mode. The recovery of the compounds from plasma was good and consistent across the concentration range studied. The lower limits of quantification for different compounds ranged from 1.3 to 70 ng/ml in plasma. A calibration curve was freshly prepared and analyzed with every set of study samples. Intraday variability was established with triplicate quality control samples at three concentration levels. The results were accepted if relative standard deviation was <15%. The mean values of the compound concentrations in plasma were obtained from three animals at each time point and plotted against time to generate concentration-time profiles. […] The oral bioavailability (F) was calculated as the ratio between the area under the concentration-time curve from 0 to infinity (AUC0-∞) following oral administration and the AUC0-∞ following intravenous administration corrected for dose (F = […].).

[2] = Mouse plasma protein binding, rapid equilibrium dialysis; type: in vitro ADME
Excerpt: (§1) page 5: Running title: PreclinicalPK -PD of antimalarials 73 to high through put form at using in- house standard assa y protocols that are described in the 74 literature. 75 (a)HT-Equilibrium solubilit y at pH 6.8( 1); (b)Parallel Artificial Membrane P ermeability Assa y 76 expressed in % fraction absorbed (FA) ( 2,3 ); (c)Apparent permeability from apical to […] 78 tested; (d)intrinsic clearance in mouse liver micro somes ex pressed as µ L/ min/mg protein, in 79 the presen ce of liver enzym es ( 6); (e)Mous e plasm a protein binding using rapid equilibrium […] 81 82 83 84 85 86 87 88 89 90 91 92 93 94 95 96 97 98 5

[3] = RBC to plasma partitioning; type: in vitro ADME; details: mean from 1 µM & 10 µM
Excerpt: (§2) page 5: Running title: PreclinicalPK -PD of antimalarials 73 to high through put form at using in- house standard assa y protocols that are described in the 74 literature. […] 81 82 83 84 85 86 87 88 89 90 91 92 93 94 95 96 97 98 5

[4] = HT-equilibrium solubility; type: physicochemical; details: pH 6.8, HT-equilibrium solubility
Excerpt: as §2

[5] = Intrinsic clearance in mouse liver microsomes; type: in vitro ADME; details: per mg protein
Excerpt: as §1

[6] = system: P. berghei GFP ANKA malaria strain PbGFPCON; assay: Dose-response efficacy in the P. berghei malaria mouse model; type: in vivo, female NMRI mice; details: for Hill slope: dose vs parasitemia model; for Pmax (maximum parasitemia) / Pmin (minimum parasitemia): sigmoid dose-response model, single oral doses 24 h postinfection; for Pmax (maximum parasitemia) / Pmin (minimum parasitemia) / ED90 (effective dose causing a 90% reduction in parasitemia): parasitemia 72 h postinfection; for ED90 (effective dose causing a 90% reduction in parasitemia): single oral dose 24 h postinfection
Excerpt: All in vivo studies conducted at the Swiss Tropical and Public Health Institute (TPH) adhered to local and national regulations of laboratory animal welfare in Switzerland (permission no. 1731). For in vivo efficacy, female (specific-pathogen-free) […] (NMRI) mice were obtained from Janvier, Le Genest-Saint-Isle, France. Only mice without visible signs of disease were used for the study. Standard laboratory conditions were adopted for husbandry. In vivo antimalarial activity was assessed using groups of five female NMRI mice (20 to 22 g) intravenously infected on day zero with 2 × 10^7 erythrocytes parasitized with P. berghei GFP ANKA malaria strain PbGFPCON (a donation from A. P. Waters and C. J. Janse, Leiden University) ([39]). Untreated control mice typically died between day six and day seven postinfection. Experimental compounds were formulated in 10% ethanol, 30% PEG 400, and 60% of 10% vitamin E TPGS and were administered orally in a volume of 10 ml/kg. Dose-response efficacy studies were conducted for each spiroindolone analog. Doses of 2.5, 5, 10, 30, and 100 mg/kg were administered to groups of 5 mice each as a single dose at 24 h postinfection. Parasitemia, expressed as parasitized red blood cells (pRBCs) of >100 RBCs, was determined 72 h postinfection using standard flow cytometry techniques ([39]).
Data analysis was done using nonlinear mixed-effect modeling (NONMEM version VI 2.0), which analyzed the PD data from multiple dose groups obtained simultaneously from different experiments. Within NONMEM, first-order conditional estimation (FOCE) was the method used ([40]). The log-transformed dose and level of parasitemia were used for analysis. For each compound, a dose-response model was built, and the ED90 (effective dose lowering 90% of parasitemia) values were determined using equation 1 ([41]), where P is the parasitemia measured at any given dose, Pmax is the maximum level of parasitemia, Pmin is the minimum level of parasitemia, EZ50 is the dose required to produce 50% of the maximal effect, s is the Hill slope describing the steepness of the curve, and x is the dose (in mg/kg). 1 P=Pmin +{[Pmax−Pmin]/[1+10^(logEZ50−log x)×s]}

| Structure (SMILES) | CL [1] [mL/min/kg] | Vss [1] [L/kg] | t1/2 (i.v.) [1] [h] | F (oral bioavailability) [1] [%] | AUC0–24 [1] [ng·h/mL] | Tmax [1] [h] | t1/2 (oral) [1] [h] | Cmax [1] [ng/mL] | Mouse PPB [2] [%] | RBC to Plasma Ratio [3] | Solubility [4] [µM] | Hepatic CLint in mouse liver microsomes [5] [µL/min/mg] | Hill slope [6] | Pmax (maximum parasitemia) [6] | Pmin (minimum parasitemia) [6] | ED90 (effective dose causing a 90% reduction in parasitemia) [6] [mg/kg] | Efficacy in the P. berghei mouse model ([6]; single oral doses 2.5 to 100 mg/kg) |
| --- | --- | --- | --- | --- | --- | --- | --- | --- | --- | --- | --- | --- | --- | --- | --- | --- | --- |
| C[C@H]1Cc2c([nH]c3cc(F)c(F)cc23)[C@@]2(N1)C(=O)Nc1ccc(Cl)cc12 [(+)-6] | 8.5 | 1.6 | 2.9 | 53 | 26800 | 2 | 3.2 | 3100 | 99.5 | 1.12 | 169 (≈ 63.2 µg/mL) | 41 | −2.03 | 32.36 | 0.09 | 17.3 | – |
| C[C@H]1Cc2c([nH]c3cc(Cl)ccc23)[C@@]2(N1)C(=O)Nc1ccc(Cl)cc12 [(+)-3] | 60.1 | 13.7 | 4.3 | 91 | 5800 | 2 | 6.2 | 700 | 99.7 | 0.93 | 8 (≈ 2.98 µg/mL) | 35 | −6.4 | 24.55 | 0.12 | 17.9 | – |
| C[C@H]1Cc2c([nH]c3ccc(F)cc23)[C@@]2(N1)C(=O)Nc1ccc(Cl)cc12 [(+)-4] | 24.0 | 1.9 | 4.7 | 26 | 3900 | 0.25 | 5.6 | 1000 | 98.8 | 0.62 | 137 (≈ 48.7 µg/mL) | 330 | −2.87 | 30.90 | 0.03 | 16.7 | – |
| C[C@@H]1Cc2c([nH]c3cc(Cl)c(F)cc23)[C@]2(N1)C(=O)Nc1ccc(Cl)cc12 [(−)-7] | 2.6 | 1.3 | 5.6 | 92 | 107300 | 1 | 9.1 | 8300 | 99.4 | 0.52 | 35 (≈ 13.7 µg/mL) | 21 | – | – | – | – | no efficacy; also recorded: poor efficacy regardless of dose |
| C[C@H]1Cc2c([nH]c3cc(F)ccc23)[C@@]2(N1)C(=O)Nc1ccc(Cl)cc12 [(+)-5] | 11.8 | 1.6 | 3.8 | 47 | 17700 | 0.25 | 4.0 | 3100 | 98.5 | 1.18 | 131 (≈ 46.6 µg/mL) | 26 | −2.99 | 25.70 | 0.05 | 38.1 | – |
